Test system: human neuroblastoma cell line
Assay: Release of noradrenaline induced by TPA/Ionomycin in a neuroblastoma cell line, quantified by ELISA
Type: cell-based
Details: TPA/ION control = 100.00
Method: Quantification of the Release of Noradrenaline Induced by TPA/Ionomycin in a Neuroblastoma Cell Line by ELISA
The induction of the release of noradrenaline with TPA (12-O-tetradecanoylphorbol-13-acetate)/lonomycin enables direct measurement of neuronal exocytosis. For the study of the inhibitory effect of the compounds of the invention on the release of noradrenaline, cells of a human neuroblastoma cell line were pre-incubated (1×10^6 cells/well) for 60 minutes with the compound of the invention (1 μM, 10 μM, 100 μM, 500 μM or 1 mM compounds), and afterward the release of noradrenaline was induced. The release of the noradrenaline neurotransmitter was induced by an 8 minute pre-treatment with a solution of 12-O-tetradecanoylphorbol-13-acetate (TPA) 100 nM, which mobilized the intracellular vesicles which contained the neurotransmitter; followed by a 5 minute incubation with TPA/Ionomycin (100 nM/10 μM), which induced the release of the neurotransmitter contained in these vesicles. […] For this, absorbance at 405 nm was measured in Thermo Scientific Multiskan Ascent equipment.
The blocking of the SNARE complex by the compounds of the invention lead to an inhibition of neuronal exocytosis and therefore, a decrease in the levels of released noradrenaline (Table 6).

Substance | % RELEASED NORADRENALINE Average (dose 10 μM) | % RELEASED NORADRENALINE Average (dose 100 μM) | % RELEASED NORADRENALINE Average (dose 1000 μM)
Ac-HQEHRKMD-NH2 [Ac-SEQ ID NO: 5-NH2] | 85.68% | 81.50% | 51.45%
Ac-QNLEHIMDQ-NH2 [Ac-SEQ ID NO: 62-NH2] | 77.76% | 82.72% | 63.99%
Ac-QQLENIMDN-NH2 [Ac-SEQ ID NO: 51-NH2] | 81.13% | 101.40% | 35.37%
